The record followed here is patent publication US9913792B2, “Methods of regulating skin health and appearance with a combination of flavonoid and vitamin B3” (The Procter & Gamble Company, priority 2014, dated 2018).

One test deals with Human dermal fibroblasts. Briefly: Extracellular acidification rate (ECAR) of fibroblasts after hydrogen peroxide challenge. The class given is cell-based. As to the method:
The effect of a combination of a flavonoid compound, a vitamin B3 compound, and a hydrolyzed silk protein on cellular energy production was assessed by measuring the extracellular acidification rate (“ECAR”) of fibroblasts after exposure to hydrogen peroxide challenge (FIG. 2). ECAR provides an indirect measure of glycolysis. Treatment with hydrogen peroxide replicates stress induced by UV radiation or chemical pollution and decreases the ECAR. An XF Extracellular Flux Analyzer (Seahorse Bioscience, North Billerica, Mass.) was used to detect extracellular acidification rate. Human dermal fibroblasts were plated at 1×10^5 cells per well in a 96-well plate 24 hours prior to testing. The plate was loaded into the analyzer and equilibrated according to the manufacturer's instructions. Hydrogen peroxide, quercetin (Tocris Bioscience), GSS (BioSpectrum) and niacinamide were loaded into an automated injection port of the XF cartridge plate. The analyzer was programmed to sequentially run a two-minute mix cycle and a four-minute measurement cycle continuously for at least 108 minutes. Data points were collected and recorded by the analyzer. The analyzer was allowed to complete three cycles to establish a baseline value for glycolysis prior to being exposed to the peroxide solution. […]
[…] The ECAR was calculated as a percent of pre-treatment baseline. […]

The next test deals with human keratinocytes. The test can be described thus: Intracellular ATP levels in keratinocytes stressed with H2O2 (ATP Glo luminescence). The class given is cell-based. Conditions: for ATP: luminescent counts; for % Control: ATP. As for the experimental part: The effects of a flavonoid compound, a vitamin B3 compound, a hydrolyzed silk protein and a combination thereof, on intracellular ATP levels were assessed. Keratinocytes were cultured in T150 flasks in EpiLife® medium (MEPICFPRF500, Life Technologies, Grand Island, N.Y.) supplemented with human keratinocyte growth supplement (S-001-5, Life Technologies) and 1% penicillin/streptomycin (15140-122, Life Technologies). When the keratinocytes reached about 70% confluency, they were plated on 96-well plates at a density of 20,000 cells/well. The plates were incubated for 24 hours before the experimental stressor (H2O2) and treatment (niacinamide and/or GSS, Crosilk™ 1000, Crosilk™ Liquid, or HerbEx Silk Peptides) were applied.
The 96-well plate was divided into groups of wells in which (1) no stressor or treatment was applied, (2) stressor was applied but no treatment, and (3) stressor and treatment were applied. For the no stressor or treatment group, the culture medium was simply refreshed. In combination experiments, stressor and two treatments were applied. […] The plates were returned to the CO2 incubator for 90 minutes before ATP was measured.
ATP was measured by removing the media from all treatment groups and controls and replacing the media with ATP Glo® reagent (Promega, Madison, Wis.) per the manufacturer's instructions. After 10 minutes of exposure at room temperature, the luminescence was measured using an EnVision® plate reader (Perkin Elmer, Waltham, Mass.). The luminescent counts that were the output from the measurement were directly proportional to the ATP levels in the cells.
Replicates of each treatment group were averaged together and standard p-value calculations were used (2-sided, equal variance) to calculate significance. In cases where two treatments appeared to synergistically enhance ATP levels, the observed results were compared to the sum of the individual treatment groups to determine significance. The ATP levels measured following treatment are provided below.

Setting [1] is: 250 uM Niacinamide + 880 uM H202.

Molecules are shown by their SMILES. Where “and” joins values, the source holds several entries; their conditions need not be identical. Equal entries are not always repeated.

Take `O=c1c(O)c(-c2ccc(O)c(O)c2)oc2cc(O)cc(O)c12` [Quercetin, 2-(3,4-dihydroxyphenyl)-3,5,7-trihydroxy-4H-chromen-4-one]: the “rate of glycolysis (ECAR) in stressed cells” value in the test on Human dermal fibroblasts (1.5 mM hydrogen peroxide, 15 uM quercetin, 90 minutes following treatment (FIG. 1)) is recorded as “significantly increase the rate of glycolysis”.

As for `NC(=O)c1cccnc1` [Niacinamide, niacinamide], in the test on Human dermal fibroblasts (1.75 mM hydrogen peroxide, 3% niacinamide alone), the “ECAR as percent of pre-treatment baseline” value is “provided a protective effect and increased the ECAR”. The ATP in the test with human keratinocytes (setting [1]) is 85645 and 75045 and 80345; with human keratinocytes (0.05% Niacinamide + 800 uM H202, 90 minutes) it was 185268. Moreover, the “% Control” value in the test on human keratinocytes (setting [1]) was 29.5%; in the test on human keratinocytes (0.05% Niacinamide + 800 uM H202), 43.3%.
